According to publication PMC6348381, “Discovery of an MLLT1/3 YEATS Domain Chemical Probe” (Angewandte Chemie (International Ed. in English), 2018):
pIC50, pKd: −log10 of the molar value.

Tests used:
[1] = molecular target: T1, MLLT1 YD (Homo sapiens, UniProt Q03111); assay: Isothermal titration calorimetry (ITC), MLLT1 YD; format: binding
T1 construct: made in house; host or cells: E. coli Rosetta
T1 sequence (Q03111 1-138 limits assumed): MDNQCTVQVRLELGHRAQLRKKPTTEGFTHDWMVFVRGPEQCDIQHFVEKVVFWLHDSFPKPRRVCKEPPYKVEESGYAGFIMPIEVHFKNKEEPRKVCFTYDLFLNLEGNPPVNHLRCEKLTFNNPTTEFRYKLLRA

[2] = test system: 48 bromodomains; assay: Thermal shift assay, bromodomain panel; format: binding, human; conditions: 50 μM compound concentrations
Protocol: II.VII Thermal Shift Assay[6]
Thermal melting experiments were carried out using an Mx3005p Real Time PCR machine (Stratagene). Proteins were buffered in 10 mM HEPES pH 7.5, 500 mM NaCl and assayed in a 96-well plate at a final concentration of 2 μM in 20 μL volume. Compounds were added at a final concentration of 50 μM. SYPRO Orange (Molecular Probes) was added as a fluorescence probe at a dilution of 1:1000. Excitation and emission filters for the SYPRO-Orange dye were set to 465 nm and 590 nm, respectively. The temperature was raised with a step of 3 °C per minute from 25 °C to 96 °C and fluorescence readings were taken at each interval. The unfolding curves were fitted using the Boltzmann equation to determine the middle point of the transition.

[3] = test system: MV4;11 AML cells; assay: qPCR gene expression in MV4;11 cells; format: cell-based, human; conditions: 1 μM, 72 h
Protocol: II.XII Analysis of gene expression by quantitative polymerase chain reaction (qPCR) […]
MV4;11 cells were cultured at 37 °C in a humidified 5% CO2 atmosphere in RPMI medium containing 10% FBS and 1% L-glutamine. Cells were seeded at a density of 2 x 10^6 cells/well in 6 well plates pre-coated in polyhema, to enable suspension culture. Cells were […]
and washing with PBS, RNA was extracted from cells using RNeasy Mini Kit (Qiagen), following the manufacturer’s protocol. Total RNA was quantified by Nanodrop and 500 ng of RNA was converted to cDNA using GoScript Reverse Transcription System (Promega). The final cDNA products were quantified by QPCR using FAM dye-labelled Taqman primers and probe sets (see table below). Data was analysed using the comparative cycle threshold (CT) method where CT values were normalised by subtracting that from an endogenous housekeeping gene (VIC dye-labelled ACTB). The gene expression levels from compound-treated cells are presented as relative to those of DMSO treated control cells. Statistical analyses were carried out using two-way ANOVA (GraphPad Prism 7).
ACTB (Beta Actin) Endogenous Control 4326315E
Supplementary Table 4. Taqman Gene Expression Assays (Life Technologies). Taqman MGB probes have 5’ FAM reporter dye (or VIC) and 3’ non-fluorescent quencher. […]

[4] = molecular target: BRD4(1) (Homo sapiens, UniProt O60885); assay: AlphaScreen selectivity screen, BRD4 (1); format: binding
Description: (§1) IC50 (µM) IC50 (µM) IC50 (µM) IC50 (µM) (µM) (µM) (µM)
(§2) Supplementary Table 1. […]

[5] = molecular target: FALZ (Homo sapiens, UniProt Q12830); assay: AlphaScreen selectivity screen, FALZ; format: binding
Description: as §1, §2

[6] = molecular target: T2, MLLT3 YD (Homo sapiens, UniProt P42568); assay: Isothermal titration calorimetry (ITC), MLLT3 YD; format: binding
T2 construct: made in house; host or cells: E. coli Rosetta
T2 sequence (P42568 1-138 limits assumed): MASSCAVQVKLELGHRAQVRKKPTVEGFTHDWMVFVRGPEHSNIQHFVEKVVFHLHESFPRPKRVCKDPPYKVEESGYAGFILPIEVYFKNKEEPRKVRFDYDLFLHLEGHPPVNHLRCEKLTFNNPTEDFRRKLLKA
Protocol: Supplementary Table 1. AlphaScreen selectivity screen of compound 92 over other acyllysine […]
II.III Isothermal Titration Calorimetry (ITC)
Experiments were carried out on a Nano -ITC Standard Volume Instrument (TA Instruments).
All experiments were carried out at 25 °C in 20 mM HEPES pH 7.5, 150 mM NaCl, 0.5 mM TCEP and 5% glycerol. Protein soluti ons were buffer exchanged by gel filtration. The titrations were conducted using an initial injection of 2 μL followed by 32 injections of 8 μL.
Background dilution heat was subtracted from each experiment. Thermodynamic parameters […]
changes in free energy, enthalpy and entropy respectively. Independent single site binding models were employed in data analysis.
(also on this page, place not known: ac yllysine Nano-ITC -T 1/ KB. ΔH Molar&ratio&[injectant/cell] Time&[s] Corrected&Heat&Rate&[ucal/s] Experiment&1 K Experiment&2 K K)
(1 picture or pasted object on this page, not shown here)

[7] = molecular target: CECR2 (Homo sapiens, UniProt Q9BXF3); assay: AlphaScreen selectivity screen, CECR2; format: binding
Chain of CECR2 (Q9BXF3 434-538 limits assumed): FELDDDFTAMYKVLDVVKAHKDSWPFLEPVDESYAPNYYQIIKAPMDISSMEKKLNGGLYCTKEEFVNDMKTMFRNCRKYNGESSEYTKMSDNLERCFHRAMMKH
Description: as §1, §2

[8] = molecular target: T3, endogenous MLLT1 in MV4;11 cells (Homo sapiens, UniProt Q03111); assay: Cellular thermal shift assay (CETSA), MV4;11 cells; format: cell-based; conditions: up to 10 μM
T3 construct: with endogenous MLLT1 in MV4;11 cells; endogenous in cells; host or cells: MV4;11
T3 sequence (Q03111 whole entry): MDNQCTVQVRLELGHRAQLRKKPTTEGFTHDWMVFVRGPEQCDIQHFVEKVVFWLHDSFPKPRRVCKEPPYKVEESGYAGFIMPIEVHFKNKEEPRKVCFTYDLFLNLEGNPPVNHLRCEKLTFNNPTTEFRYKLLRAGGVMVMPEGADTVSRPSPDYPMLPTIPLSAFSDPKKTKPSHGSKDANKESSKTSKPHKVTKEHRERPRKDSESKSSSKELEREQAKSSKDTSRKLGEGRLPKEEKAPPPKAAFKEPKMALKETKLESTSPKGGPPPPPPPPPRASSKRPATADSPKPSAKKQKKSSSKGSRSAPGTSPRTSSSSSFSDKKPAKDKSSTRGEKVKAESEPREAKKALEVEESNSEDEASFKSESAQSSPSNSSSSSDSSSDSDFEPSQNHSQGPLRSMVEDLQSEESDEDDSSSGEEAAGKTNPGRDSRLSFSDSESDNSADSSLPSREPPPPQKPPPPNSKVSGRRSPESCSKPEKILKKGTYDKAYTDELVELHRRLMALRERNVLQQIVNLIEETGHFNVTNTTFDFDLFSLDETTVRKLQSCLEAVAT
Protocol: Supplementary Table 2. Thermal stabilisation of compound 1, 92 and Bromosporine with recombinant human bromodomain proteins. *50 µM compound concentration. †10 µM compound […]
II.VIII Cellular Thermal Shift Assay[6]
HEK293 and MV4;11 cells were cultured at 37 °C in a humidified 5% CO2 atmosphere in DMEM Medium containing 10% FBS, respectively. Cells were grown until approximately […]
DMSO final concentrati on) for 30 minutes. Cells were then collected, washed with PBS, transferred in PCR tubes, and pelleted by centrifugation (300 g, 3 min, RT.) The PBS was removed, and the cell pellets heated at the indicated temperature for 3 minutes in a PCR machine (UNO96 , VMR) and then placed on ice. Lysis buffer (50 mM Tris pH 7.5, 0.8% v/v NP-40, 5% v/v glycerol, 1.5 mM MgCl2, 100 mM NaCl, 25 mM NaF, 1mM Na3VO4, 1mM PMSF, 1mM DTT, 10 μg/mL TLCK, 1 μg/mL Leupeptin, 1 μg/mL Aprotinin, 1 μg/mL soy bean trypsin, ≥250 units/ mL Benzonase) was added and the cells lysed by 3 freeze -thaw cycles in liquid nitrogen. Aggregated proteins were removed by centrifugation (17000 g, 20 min, 4 °C) and the protein concentration of the retained soluble fraction determined. 4× sample loading buffer (Bio-Rad) containing 20% v/v DTT was added and samples were heated for 6 min at 90 °C prior to separation by SDS -PAGE. […]

[9] = molecular target: T4, YEATS2 (Homo sapiens, UniProt Q9ULM3); assay: AlphaScreen selectivity screen, YEATS2; format: binding
T4 construct: made in house; host or cells: E. coli Rosetta
T4 sequence (Q9ULM3 200-345 limits assumed): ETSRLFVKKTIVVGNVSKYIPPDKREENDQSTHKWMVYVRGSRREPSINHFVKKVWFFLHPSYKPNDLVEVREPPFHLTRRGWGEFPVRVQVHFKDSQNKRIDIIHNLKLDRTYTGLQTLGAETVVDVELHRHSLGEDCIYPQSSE
Description: as §1, §2

| SMILES | pKd [1] | activity against 48 bromodomains in thermal shift assay [2] | gene expression of MYC, MPO, DDN, CTSG, CD86 (qPCR) [3] | CD86 gene expression (qPCR) ([3]; compared to DMSO) | DDN gene expression (qPCR) ([3]; compared to DMSO) | MYC gene expression (qPCR) ([3]; compared to DMSO) | inhibition of BRD4 (I) ([4]; 10 μM using AS) | pIC50 ([4]; AlphaScreen selectivity screen) | inhibition of FALZ ([5]; 10 μM using AS) | pIC50 ([5]; AlphaScreen selectivity screen) | pKd [6] | inhibition of CECR2 ([7]; 10 μM using AS) | pIC50 ([7]; AlphaScreen selectivity screen, read-out: CECR2 (2) IC50) | thermal stabilisation of MLLT1 (CETSA) [8] | pIC50 [9] |
| --- | --- | --- | --- | --- | --- | --- | --- | --- | --- | --- | --- | --- | --- | --- | --- |
| COC(=O)c1ccc(C(=O)Nc2ccc3[nH]c(CN4CCCCC4)nc3c2)cc1 [Compound 1] | 6.00 | no activity |  |  |  |  |  |  |  |  |  |  |  |  |  |
| C[C@H]1CCCN1Cc1nc2cc(NC(=O)c3ccc4c(cnn4C)c3)ccc2[nH]1 [Compound 92] |  |  | changed gene expression of 3/5 genes | increase | reduction | reduction | no inhibition | < 5.00 | no inhibition | < 5.00 | 7.11 | no inhibition | < 5.00 | stabilisation of MLLT1 | < 5.00 |
